# Results taken from US20100216722A1, “USE OF THE PEPTIDE PRO-GLY-THR-CYS-GLU-ILE-CYS-ALA-TYR-ALA-ALA-CYS-THR-GLY-CYS AS A THERAPEUTIC AGENT” (priority 2007, published 2010).
# Positions of bridges follow the written chain, without caps; N, C: chain ends. Residues, ends and D or L forms follow the SMILES beside them.
# Key:
# MRC-5 cells = settings: human, 6 days
# Protocol: (§1) For cytotxicity testing, MRC-5 cells were seeded at 2,500 cells/well in 96 well plates using growth medium. […] The following day, peptide was added and tested in duplicates. After a 6 days incubation period, cell viability was measured using CellTiter 96 Solution (Promega). Plates were incubated for additional 4 hours at 37° C. Adhesive plate sealers were used in place of lids, the sealed plates were inverted several times to mix the soluble formazan product and the plate was read spectrophotometrically at 490/560 nm with a Molecular Devices Vmax plate reader.
# HCMV strain AD169 = assay: HCMV plaque reduction assay in MRC-5 cells; settings: HCMV AD169 in MRC-5 cells; peptide 10 micrograms per ml; 7-10 days
# HepG2-2.2.15 cells = assay: Cytotoxicity in HepG2-2.2.15 cells (dye uptake cell viability); settings: HepG2-2.2.15 cells; peptide 10 micrograms per ml; dye uptake assay
# HIV-1IIIB = assay: HIV-1 antiviral assay (CPE reduction, MTS) in CEM-SS cells; type: cell-based; settings: peptide 10 micrograms per ml, 6 days post-infection
# RAW 264.7 cells = assay: Phagocytosis assay (Fluorescein-labeled Escherichia coli, flow cytometry); type: cell-based, mouse; settings: peptide 10 micrograms per ml, 30 min before Fluorescein-labeled E. coli
# Protocol: Cells were incubated in 12×75 mm tubes at 37° C. with test peptide—10 micrograms per ml—for 30 min prior to adding Fluorescein-labeled Escherichia coli bacteria as the agent to be ingested. […] The samples were then analyzed by flow cytometry to determine the amount of phagocytosis as a function of brightness (the greater the phagocytic activity, the more fluorescence in the macrophage population). Data are reported as % positive and the mean fluorescence intensity (MFI) of positively stained cells.
# [1] = tested on: Primary Human endothelial cells (HUVEC); assay: Endothelial cell migration assay; type: cell-based; settings: peptide 10 micrograms per ml, 22 hours
# Protocol: Endothelial cell migration is a prerequisite for the process of neo-vascularization or angiogenesis which is crucial for on-site recruitment of blood vessel formation. […] Thereafter, designated concentration of test peptide—10 micrograms per ml—was added in duplicate wells. The endothelia were allowed to migrate for 22 hours at 37° C., then, migrated cells were fixed and stained with Hoechst 33342 dye. Images of 3 fields per insert were taken and the number of migrated cells per field were quantified using the ImageProPlus software. Data were analyzed for the average number of the migrated cells and standard deviation of six data points for each treatment condition. Active test peptide against HUVEC migration was determined based on 50% inhibition of migrated cells as compared with the control. Statistic p values were computed using the Student's t-test.
# in vitro [2] = settings: human, MRC-5 cells (embryonal lung fibroblasts)
# Protocol: as §1
# A549 cells [3] = assay: Propidium iodide cell cycle assay; type: cell-based, human; settings: peptide 10 micrograms per ml, 24 hours, Propidium iodide FACS
# Protocol: Human A549 cells (carcinomic human alveolar basal epithelial cells) were utilized in the experiments employing the Propidium iodide cell cycle assay. The eukaryotic cell cycle is a series of events that take place in a cell leading to its replication. Propidium iodide is an intercalating agent and a fluorescent molecule that can be used to stain DNA. Cells were incubated for 24 hours with test peptide—10 micrograms per ml—or left untreated. […] The cells were pipetted into 2.5 ml absolute EtOH (final concentration approx. 70%) and incubated on ice for 15 min. Thereafter, cells were pelleted at 1500 rpm for 5 min and resuspended in Propidium iodide solution in PBS. After incubation for 40 min at 37° C., cells were analyzed in the FACS.
# A549 cells [4] = assay: Apoptosis induction assay (Annexin-5); type: cell-based, human; settings: apoptosis in A549 cells, peptide 10 micrograms per ml, 24 hours
# Excerpt: Human A549 cells (carcinomic human alveolar basal epithelial cells) were utilized in the experiments employing the Annexin-5 apoptosis assay. Annexin-5 is a member of a highly conserved protein family that binds acidic phospholipids in a calcium-dependent manner. […] Phosphatidylserine is translocated from the inner side of the plasma membrane to the outer layer when cells undergo death by apoptosis or cell necrosis and serves as a signal by which cell destined for death are recognized by phagocytes. Test peptide—10 micrograms per ml—were exposed for 24 hours to the A549 cells before they were analyzed for signs of apoptosis.
# HUVEC = assay: Endothelial tube formation assay; type: cell-based, human; settings: peptide 10 micrograms per ml, 20 hours
# Protocol: The endothelial tube formation assay is based on the ability of endothelial cells to form three-dimensional capillary-like tubular structures when cultured on a gel of basement membrane extract. The endothelial tube formation assay represents a powerful model for studying inhibition and induction of angiogenesis. Pre-labeled HUVEC with Calcein AM were seeded in a 96-well culture plate coated with extracellular metrix (Chemicon international Cat. ECM625) and treated with test peptide—10 micrograms per ml—in full growth medium. Positive control wes vehicle only. The endothelial cells were allowed to form tubes foe 20 hours and were then examined under an inverted fluorescent microscope. Duplicate wells for each treatment were photographed and quantitatively analyzed for an average tubule length using image analysis software ImageProPlus. Raw data were expressed as average tubule lengths in pixels±standard deviation. Statistic p values were computed using the Student's t-test.
# [5] = tested on: spleen cells of Ovalbumin-immunized Balb/c mice; assay: Th1/Th2 cytokine profiling assay (Ovalbumin-restimulated spleen cells, CBA kit); type: cell-based, mouse; settings: peptide 10 micrograms per ml; Ovalbumin restimulation; 72 hours
# Protocol: The Balb/c mice (originated in 1923, it is a popular strain and is used in many different research disciplines. […] On day 50, spleens of the mice were harvested (3 weeks after last boost with Ovalbumin). Cells were cultured (2×10^5/well in triplicate) and incubated with culture medium or test peptide—10 micrograms per ml—for 30 min. Thereafter, additional Ovalbumin was added to the cells at 10 micrograms/ml for in vitro restimulation of the cells. 72 hours later, cell supernatants were harvested and assayed using the Becton Dickinson Mouse Th1/Th2 Cytokine CBA Kit. This kit can be used to measure Interleukin-2 (IL-2), Interleukin-4 (IL-4), Interleukin-5 (IL-5), Interferon-γ (IFN-γ), and Tumor Necrosis Factor-α (TNF-α) protein levels in a single sample. The kit performance has been optimized for analysis of physiologically relevant concentrations (pg/ml levels) of specific cytokine proteins in tissue culture supernatants and serum samples.
# [6] = tested on: hepatitis B virus (HBV) ayw strain; assay: HBV replication assay in HepG2-2.2.15 cells (TaqMan PCR of secreted HBV DNA); type: cell-based; settings: peptide 10 micrograms per ml, six days, HBV DNA in supernatant
# [7] = Cytotoxicity in HepG2-2.2.15 cells (dye uptake cell viability); settings: human
# A549 cells [8] = assay: Apoptosis prevention assay (C2 ceramide, Annexin-5); type: cell-based, human; settings: A549 cells pretreated 30 min with peptide 10 micrograms per ml, then C2 ceramide
# Excerpt: Human A549 cells (carcinomic human alveolar basal epithelial cells) were utilized in the experiments employing the Annexin-5 apoptosis assay. Annexin-5 is a member of a highly conserved protein family that binds acidic phospholipids in a calcium-dependent manner. […] Phosphatidylserine is translocated from the inner side of the plasma membrane to the outer layer when cells undergo death by apoptosis or cell necrosis and serves as a signal by which cell destined for death are recognized by phagocytes. A549 cells were pretreated for 30 min with test peptide—10 micrograms per ml—followed by the exposure to C2 ceramide. Ceramide mediates cell apoptosis through the activation of the mitogen activating protein kinase (MAPK) and the stress activated kinase (JNK/SAPK). C2 ceramide is a synthetic, membrane soluble analog of ceramide.
# [9] = tested on: macrophages differentiated from human PBMC; assay: TNF alpha production assay (LPS-stimulated macrophages, ELISA); type: cell-based; settings: peptide 10 micrograms per ml, 30 min before lipopolysaccharide 200 ng/ml, overnight
# Protocol: Human Peripheral Blood Mononuclear Cells (PBMC) were obtained from normal human donors. The macrophages were prepared by adherence of PBMC to the plastic wells of the plates. After 8 days in culture in the presence of recombinant human macrophage-colony stimulating factor at 2 ng/ml, differentiated macrophages were preincubated with test peptide—10 micrograms per ml—for 30 min, followed by in-well stimulation by the addition of lipopolysaccharide at a final concentration of 200 ng/ml. Not stimulated macrophages served as negative background control. After overnight incubation, supernatants from the control and LPS-stimulated cultures were harvested and assayed for TNF alpha production employing a TNF alpha specific ELISA.
# in vitro [10] = settings: human, CEM-SS cells
# [11] = tested on: Human Peripheral Blood Mononuclear Cells (PBMC); assay: B cell proliferation assay (SAC plus Interleukin-2, 3H-thymidine); type: cell-based; settings: peptide 10 micrograms per ml, 3H-thymidine incorporation
# Protocol: Human Peripheral Blood Mononuclear Cells (PBMC) were obtained from normal human donors. The B cell proliferation was induced by stimulation of the cells with the B cell mitogen Staphylococcus aureus Cowans I (SAC) plus Interleukin-2, either in the absence (positive proliferation control), or in the presence of test peptide—10 micrograms per ml—to examine their effects on the B cell response. 10^5/well PBMC were plated in 96-well microtiter plates and assayed in duplicate with the peptide. Cell cultures were incubated at 37° C. for 3 days in a 5% CO2 incubator and were thereafter pulsed with 1 microCi/well ^3H-thymidine for additional 12 hours of culture. At the end of incubation time, the plates were harvested and the cells counted by liquid scintillation for the incorporation of ^3H-thymidine as a measure of B cell proliferation.
# [12] = tested on: Human Peripheral Blood Mononuclear Cells (PBMC); assay: T cell proliferation assay (PHA, 3H-thymidine); type: cell-based; settings: peptide 10 micrograms per ml, 3H-thymidine incorporation
# Protocol: Human Peripheral Blood Mononuclear Cells (PBMC) were obtained from normal human donors. The T cell proliferation was induced by stimulation of the cells with the T cell mitogen phytohemagglutinin (PHA), either in the absence (positive proliferation control), or in the presence of test peptide—10 micrograms per ml—to examine their effects on the T cell proliferating response. 10^5/well PBMC were plated in 96-well microtiter plates and assayed in duplicate with the peptide. Cell cultures were incubated at 37° C. for 3 days in a 5% CO2 incubator and were thereafter pulsed with 1 microCi/well ^3H-thymidine for additional 12 hours of culture. At the end of incubation time, the plates were harvested and the cells counted by liquid scintillation for the incorporation of ^3H-thymidine as a measure of T cell proliferation.
smiles,measurement,setting,value
"Nc1nc(O)c2ncn(COC(CO)CO)c2n1 [Ganciclovir, reference compound]",% Cell viability,MRC-5 cells,100%
same,% plaque reduction,HCMV strain AD169,100%
"Nc1ccn([C@@H]2CS[C@H](CO)O2)c(=O)n1 [3TC, Lamivudine, reference compound]",% Cell viability,HepG2-2.2.15 cells,95.8%
"Cc1cn([C@H]2C[C@H](N=[N+]=[N-])[C@@H](CO)O2)c(=O)[nH]c1=O [AZT, zidovudine]",% CPE reduction in HIV-1 infected CEM-SS cells,HIV-1IIIB,99%
"CC(C)(C)NC(=O)[C@@H]1CN(Cc2cccnc2)CCN1C[C@@H](O)C[C@@H](Cc1ccccc1)C(=O)N[C@H]1c2ccccc2C[C@H]1O [Indinavir, indinavir]",% CPE reduction in HIV-1 infected CEM-SS cells,HIV-1IIIB,100%
"CC[C@H](C)[C@@H]1NC(=O)[C@H](CCC(=O)O)NC(=O)[C@@H](NC(=O)[C@@H](NC(=O)CNC(=O)[C@@H]2CCCN2)[C@@H](C)O)CSSC[C@@H]2NC(=O)[C@H](C)NC(=O)[C@H](C)NC(=O)[C@H](Cc3ccc(O)cc3)NC(=O)[C@H](C)NC(=O)[C@H](CSSC[C@@H](C(=O)O)NC(=O)CNC(=O)[C@H]([C@@H](C)O)NC2=O)NC1=O [Guanylin, Pro-Gly-Thr-Cys-Glu-Ile-Cys-Ala-Tyr-Ala-Ala-Cys-Thr-Gly-Cys-OH] (H-PGTCEICAYAACTGC-OH; disulfide 4-12, 7-15 (inferred); N-terminus assumed)",% of control phagocytosis,RAW 264.7 cells,105.9%
same,% inhibition of migration,[1],24.0%
same,viability at 144 h,in vitro [2],100%
same,Cell cycle analysis G0/G1,A549 cells [3],58.7
same,Cell cycle analysis G2/M,A549 cells [3],9.8
same,Cell cycle analysis S,A549 cells [3],31.5
same,% of induction,A549 cells [4],1.5%
same,% inhibition of tube formation,HUVEC,10.0%
same,IFNγ spleen cells; TH1 response (% of control),[5],62.0 % of control
same,IL-2 spleen cells (% of control),[5],135.5 % of control
same,IL-4 spleen cells; TH2 response (% of control),[5],143.8 % of control
same,IL-5 spleen cells; TH2 response (% of control),[5],82.6 % of control
same,TNF-a spleen cells; TH1 response (% of control),[5],108.5 % of control
same,% inhibition of HBV replication in HEP G2 cells,[6],21.7%
same,"viability at 144 h, 10 micrograms per ml",[7],91.2%
same,% prevention of ceramide induced apoptosis,A549 cells [8],0.0%
same,% of LPS induction,[9],96.6%
same,viability at 10 micrograms per ml,in vitro [10],100%
same,% of SAC/IL2 induced control,[11],97.0%
same,% plaque reduction,HCMV strain AD169,0.0%
same,% of PHA induced control,[12],93.7%
same,% CPE reduction in HIV-1 infected CEM-SS cells,HIV-1IIIB,13.2%
